Laboratory results from US9410128B2, “Method and compounds for generation of iPSCs” (Sanford-Burnham Medical Research Institute, priority 2011, dated 2016).

Legend:
Format in all cases: cell-based, mouse
Oct4-EGFP MEFs [1] = experiment: Alkaline phosphatase (AP)+ colony formation during reprogramming; settings: molecules applied during reprogramming; data not shown
Protocol: iPS cells were seeded and cultured on 0.1% gelatin-coated 6-well plates. Four days later, cells were fixed with 4% paraformadehyde (Electron Microscopy Sciences; Cat#15710-S). For immunofluorescence, fixed cells were permeabilized with 0.1% Triton X-100 in PBS and blocked with 5% BSA in PBS. SSEA-1 (R&D; Cat#MAB2155), Sox2 (R&D; Cat#MAB2018), and Nanog (R&D; Cat#AF2729) antibodies were used to detect ES markers. Nuclei were visualized by Hoechst 33342 (Invitrogen) staining. For AP staining, fixed cells were treated with alkaline phosphatase substrate following the manufacturer's instruction (Vector Laboratories; Cat#SK-5100).
All 17 molecules were tested by examining alkaline phosphatase (AP)+ colony formation during reprogramming while these molecules were applied. […] To that end, 6 molecules were picked including nabumetone, 4-hydroxytamoxifen (OHTM), corynanthine, moclobemide, NiSO4, and lectin—for further analysis (FIG. 2A). To evaluate their effect on induction of mature GFP+ iPS cells, OSKM-transduced Oct4-EGFP MEFs were treated four days after transduction with each of these factors separately.

Oct4-EGFP MEFs [2] = experiment: OSKM-induced reprogramming of Oct4-EGFP MEFs to iPS cells, GFP+ colony count
Excerpt: (§1) Oct4-EGFP MEFs were derived from the mouse strain B6; 129S4-Pou5f1^tm2(EGFP)Jae/J (The Jackson Laboratory, Bar Harbor, Me., USA, on the world wide web at jax.org/; stock #008214) following the protocol on the WiCell Research Institute, Madison, Wis., USA, on the world wide web at wicell.org/website. In brief, embryonic day 13.5 (E13.5) embryos were collected from timemated pregnant female mice and then tested for microbial contamination. Oct4-EGFP MEFs were maintained in MEF complete medium (Dulbecco's modified Eagle's medium [For DMEM or culture medium & materials: Gibco Cell Culture, Carlsbad, Calif., USA, on the world wide web at invitrogen.com/gibco] with 10% fetal bovine serum (FBS), nonessential amino acids, L-glutamine, and no sodium pyruvate). Cells passaged fewer than five times were used for induced reprogramming.
Reprogramming was conducted as described in Takahashi et al. (Cell 126: 663-676 (2006)). In brief, 4×10^4 Oct4-EGFP MEF were transduced with pMX retroviruses for ectopic expression of Oct4, Sox2, Klf4, and c-Myc (Addgene). Three days later, cells were fed ES medium (DMEM with 15% ES-screened FBS, nonessential amino acids, L-glutamine, monothioglycerol, and 1000 U/ml leukemia inhibitory factor (LIF)) and the media was changed every other day. Reprogrammed (EGFP+) cells were identified and scored by fluorescence microscopy two to three weeks post transduction, unless otherwise stated. To derive iPSCs, EGFP+ colonies were manually picked under a stereomicroscope (Leica Microsystems). In the case of small molecule treatment, indicated small molecules were applied to reprogramming cells on day four post-transduction and fresh medium was added every other day for at least two weeks or until EGFP+ colonies appeared.
For reprogramming, retrovirus expressing reprogramming factors (Oct4, Sox2, Klf4, and c-Myc) were added and the medium was then changed to complete medium next day. For overexpression of COX2 transgene, retroviruses expressing COX2 were added 1 day after OSKM transduction. siRNAs were introduced at day 5 post-transduction.

Oct4-EGFP MEFs [3] = experiment: OSK (without c-Myc) reprogramming of Oct4-EGFP MEFs, GFP+ colony count
Excerpt: as §1
Reprogramming was conducted as described in Takahashi et al. (Cell 126: 663-676 (2006)). In brief, 4×10^4 Oct4-EGFP MEF were transduced with pMX retroviruses for ectopic expression of Oct4, Sox2, Klf4, and c-Myc (Addgene). […] Reprogrammed (EGFP+) cells were identified and scored by fluorescence microscopy two to three weeks post transduction, unless otherwise stated. […]

Oct4-EGFP MEFs [4] = experiment: OKM (without Sox2) reprogramming of Oct4-EGFP MEFs, GFP+ colony count
Protocol: Oct4-EGFP MEFs were derived from the mouse strain B6; 129S4-Pou5f1^tm2(EGFP)Jae/J (The Jackson Laboratory, Bar Harbor, Me., USA, on the world wide web at jax.org/; stock #008214) following the protocol on the WiCell Research Institute, Madison, Wis., USA, on the world wide web at wicell.org/website. In brief, embryonic day 13.5 (E13.5) embryos were collected from timemated pregnant female mice and then tested for microbial contamination. […]
Reprogramming was conducted as described in Takahashi et al. (Cell 126: 663-676 (2006)). […] Reprogrammed (EGFP+) cells were identified and scored by fluorescence microscopy two to three weeks post transduction, unless otherwise stated. […]
Oct4-EGFP MEFs were transduced with OKM and treated with pool of 6 molecules, including NiSO4, nabumetone, OHTM, moclobemide, lectin, and corynanthine, at day 4 for at least 10 days. GFP+ colonies were identified and counted as described in FIG. 1 at day 14. […]
Oct4-EGFP MEFs were transduced with OKM and four days later treated with 1.25 uM OHTM at least 10 days. GFP+ colonies were counted as described in FIG. 1 at day 15˜21. […]
Oct4-EGFP MEFs were transduced with OKM and four days later treated with 2.18 uM nabumetone (Nabu) for at least 10 days. GFP+ colonies were counted as described in FIG. 1 at day 17˜21. […]

Sox2 = experiment: Endogenous Sox2 mRNA expression by real time qRT-PCR in OKM-transduced Oct4-EGFP MEFs; settings: OKM-transduced cells, compared with OKM+DMSO (FIG. 3E)
Excerpt: To understand the molecular mechanism underlying OHTM's effect on reprogramming, the question of whether OHTM induces endogenous Sox2 expression was posed. To do so, OHTM or control DMSO was applied to Oct4-EGFP MEF four days after transduction with OKM. Cells were harvested at indicated time points for total RNA isolation and real time qRT-PCR analysis (FIG. 3E). […] However, the direct targets of OHTM to affect Sox2 expression were not clear.
Oct4-EGFP MEFs were transduced with OKM and treated with OHTM four days later. Cells were harvested at indicated days (D) for real time RT-PCR analysis. β actin expression serves as an internal control. Error bars represent standard deviation of 2˜3 independent experiments. * p value <0.05.

Compound: COC(=O)[C@H]1[C@H]2C[C@H]3c4[nH]c5ccccc5c4CCN3C[C@@H]2CC[C@@H]1O.Cl [Corynanthine hydrochloride]
- effect on AP+ colony formation (Oct4-EGFP MEFs [1]): not showing adverse effect

Compound: COc1ccc2cc(CCC(C)=O)ccc2c1 [Nabumetone]
- enhancement of reprogramming efficiency (Oct4-EGFP MEFs [2]; in the presence of control siRNA (siNT), compared with DMSO treatment, day 12~14 (FIG. 2C)): more than 6 fold
- increase in number of reprogrammed (GFP+) colonies (Oct4-EGFP MEFs [2]; treated four days after transduction, compared with DMSO controls (FIG. 2B)): at least 2.8 fold
- enhancement of reprogramming by OSK (Oct4-EGFP MEFs [3]; OSK without c-Myc, treated four days after transduction, day 21, compared with OSK+DMSO (FIG. 3A)): ~2.5 fold
- effect on OKM-induced reprogramming (Oct4-EGFP MEFs [4]; 2.18 uM, day 17~21 (FIG. 3D)): significantly improved
- effect on AP+ colony formation (Oct4-EGFP MEFs [1]): not showing adverse effect

Compound: O=C(NCCN1CCOCC1)c1ccc(Cl)cc1 [Moclobemide]
- effect on AP+ colony formation (Oct4-EGFP MEFs [1]): not showing adverse effect

Compound: COc1ccc2c(c1)c(CC(=O)O)c(C)n2C(=O)c1ccc(Cl)cc1 [indomethacin]
- effect on iPSC generation (EGFP+ colony number) (Oct4-EGFP MEFs [2]; applied day 4~5 post transduction, scored two weeks post transduction (FIG. 6A)): no effect
- effect on iPSC generation (EGFP+ colony number) (Oct4-EGFP MEFs [3]; OSK, applied day 4~5 post transduction, scored two weeks post transduction (FIG. 6B)): no effect

Compound: 4-hydroxytamoxifen [4-hydroxytamoxifen (OHTM)]
- effect on OKM-induced reprogramming (Oct4-EGFP MEFs [4]; 1.25 uM, day 15~21, vs OKM+DMSO (FIG. 3C)): significantly improved
- induction of endogenous Sox2 mRNA (Sox2; day 12): 220%
- induction of endogenous Sox2 mRNA (Sox2; day 16): 400%
- effect on AP+ colony formation (Oct4-EGFP MEFs [1]): not showing adverse effect
